Measurements reported in ChEMBL document CHEMBL4630903, “Data for DCP probe BI-2540” (2021).
Activity calls are given as the source filed them. No cut-off for these calls is given here.

Assays:
[1] = HIV1 reverse transcriptase picogreen fluorescence assay (enzymatic); set-up: species or system Human immunodeficiency virus 1
[2] = biological target: Mu-type opioid receptor (Homo sapiens) (UniProt P35372); experiment: MU/H Eurofins SafetyScreen44 (BI); details: Compound concentration 10.0 uM
[3] = biological target: Adenosine receptor A2a (Homo sapiens) (UniProt P29274); experiment: A2A/H Eurofins SafetyScreen44 (BI); details: filed as antagonist, Compound concentration 10.0 uM
[4] = biological target: Cholecystokinin receptor type A (Homo sapiens) (UniProt P32238); experiment: CCKA/H Eurofins SafetyScreen44 (BI); details: Compound concentration 10.0 uM
MAO-A = MAO-A (Rattus norvegicus, UniProt P21396); experiment: MAO-A_ANTAG Eurofins SafetyScreen44 (BI); set-up: mode of action antagonist; scale not given: the % may be the effect or the level left; details: compound concentration 10 uM, read-out: % Ctrl
[5] = biological target: Sodium-dependent serotonin transporter (Homo sapiens) (UniProt P31645); experiment: SLC6A4/H Eurofins SafetyScreen44 (BI); details: filed as antagonist, Compound concentration 10.0 uM
[6] = biological target: Histamine H2 receptor (Homo sapiens) (UniProt P25021); experiment: H2/APT/HS Eurofins SafetyScreen44 (BI); details: filed as antagonist, Compound concentration 10.0 uM
[7] = biological target: D(1A) dopamine receptor (Homo sapiens) (UniProt P21728); experiment: D1/H Eurofins SafetyScreen44 (BI); details: filed as antagonist, Compound concentration 10.0 uM
[8] = biological target: L-type Ca2+ channel (dihydropyridine site), Cav1.2 alpha-1C (Rattus norvegicus, UniProt P22002); experiment: CA+/DHPSI/R Eurofins SafetyScreen44 (BI); set-up: mode of action inhibitor; details: rat brain, probe [3H](+)PN200-110, compound concentration 10 uM, read-out: % Ctrl
[9] = biological target: Cannabinoid receptor 1 (Homo sapiens) (UniProt P21554); experiment: CB1(HU)_AGON Eurofins SafetyScreen44 (BI); details: filed as agonist; Compound concentration 10.0 uM
[10] = biological target: Delta-type opioid receptor (Homo sapiens) (UniProt P41143); experiment: DELTA2/H Eurofins SafetyScreen44 (BI); details: Compound concentration 10.0 uM
[11] = biological target: Potassium voltage-gated channel subfamily V member 1 (Rattus norvegicus) (UniProt P97557); experiment: K+/VOLT/RA Eurofins SafetyScreen44 (BI); details: Compound concentration 10.0 uM
[12] = biological target: Tyrosine-protein kinase Lck (Homo sapiens) (UniProt P06239); experiment: LCK_CE Eurofins SafetyScreen44 (BI); details: Compound concentration 10.0 uM
[13] = biological target: Prostaglandin G/H synthase 1 (Homo sapiens) (UniProt P23219); experiment: COX-1 Eurofins SafetyScreen44 (BI); details: Compound concentration 10.0 uM
[14] = biological target: Sodium-dependent noradrenaline transporter (Homo sapiens) (UniProt P23975); experiment: NEUP/H Eurofins SafetyScreen44 (BI); details: Compound concentration 10.0 uM
[15] = biological target: Gamma-aminobutyric acid receptor subunit alpha-1 (Rattus norvegicus) (UniProt P62813); experiment: BZD/CENTR/R Eurofins SafetyScreen44 (BI); details: Compound concentration 10.0 uM
[16] = biological target: 5-hydroxytryptamine receptor 1A (Homo sapiens) (UniProt P08908); experiment: 5HT1A/H Eurofins SafetyScreen44 (BI); details: Compound concentration 10.0 uM
[17] = biological target: cGMP-inhibited 3',5'-cyclic phosphodiesterase 3A (Homo sapiens) (UniProt Q14432); experiment: PDE3A Eurofins SafetyScreen44 (BI); details: Compound concentration 10.0 uM
[18] = biological target: 5-hydroxytryptamine receptor 2B (Homo sapiens) (UniProt P41595); experiment: 5HT2B/H AG Eurofins SafetyScreen44 (BI); details: filed as agonist, Compound concentration 10.0 uM
[19] = biological target: Alpha-1A adrenergic receptor (Homo sapiens) (UniProt P35348); experiment: ALPHA1AH_ANTAG Eurofins SafetyScreen44 (BI); details: filed as antagonist, Compound concentration 10.0 uM
[20] = biological target: D(2) dopamine receptor (Homo sapiens) (UniProt P14416); experiment: D2SH_AGON Eurofins SafetyScreen44 (BI); details: filed as agonist, Compound concentration 10.0 uM
hERG (KCNH2) = hERG (KCNH2) (Homo sapiens, UniProt Q12809); experiment: HERG_DOFETILIDE Eurofins SafetyScreen44 (BI); set-up: mode of action inhibitor; details: probe [3H] dofetilide, compound concentration 10 uM, read-out: % Ctrl
[21] = biological target: Beta-1 adrenergic receptor (Homo sapiens) (UniProt P08588); experiment: BETA1/HUM Eurofins SafetyScreen44 (BI); details: Compound concentration 10.0 uM
[22] = biological target: Kappa-type opioid receptor (Homo sapiens) (UniProt P41145); experiment: KAPPA(KOP)_HU Eurofins SafetyScreen44 (BI); details: Compound concentration 10.0 uM
[23] = biological target: Alpha-2A adrenergic receptor (Homo sapiens) (UniProt P08913); experiment: ALPHA2A/HU Eurofins SafetyScreen44 (BI); details: Compound concentration 10.0 uM
[24] = biological target: Vasopressin V1a receptor (Homo sapiens) (UniProt P37288); experiment: V1A/HUM Eurofins SafetyScreen44 (BI); details: Compound concentration 10.0 uM
[25] = biological target: Androgen receptor (Homo sapiens) (UniProt P10275); experiment: ANDROGEN/H Eurofins SafetyScreen44 (BI); details: Compound concentration 10.0 uM
[26] = HIV 1 luciferase assay; type: cell-based, Human immunodeficiency virus 1; details: c8166
[27] = biological target: Prostaglandin G/H synthase 2 (Homo sapiens) (UniProt P35354); experiment: COX-2 Eurofins SafetyScreen44 (BI); details: Compound concentration 10.0 uM
[28] = biological target: 5-hydroxytryptamine receptor 1B (Homo sapiens) (UniProt P28222); experiment: 5HT1B(H) Eurofins SafetyScreen44 (BI); details: filed as antagonist, Compound concentration 10.0 uM
[29] = biological target: Histamine H1 receptor (Homo sapiens) (UniProt P35367); experiment: H1/PYRIL/HS Eurofins SafetyScreen44 (BI); details: Compound concentration 10.0 uM
[30] = biological target: Glutamate receptor ionotropic, NMDA 2A (Rattus norvegicus) (UniProt Q00959); experiment: NMDA/R Eurofins SafetyScreen44 (BI); details: Compound concentration 10.0 uM
[31] = biological target: Muscarinic acetylcholine receptor M3 (Homo sapiens) (UniProt P20309); experiment: M3/H Eurofins SafetyScreen44 (BI); details: Compound concentration 10.0 uM
[32] = biological target: Cannabinoid receptor 2 (Homo sapiens) (UniProt P34972); experiment: CB2/PERIPH/H Eurofins SafetyScreen44 (BI); details: Compound concentration 10.0 uM
[33] = biological target: Muscarinic acetylcholine receptor M1 (Homo sapiens) (UniProt P11229); experiment: M1/H Eurofins SafetyScreen44 (BI); details: Compound concentration 10.0 uM
[34] = biological target: Glucocorticoid receptor (Homo sapiens) (UniProt P04150); experiment: GCORTICOID/H Eurofins SafetyScreen44 (BI); details: Compound concentration 10.0 uM
[35] = biological target: Sodium-dependent dopamine transporter (Homo sapiens) (UniProt Q01959); experiment: DATRANS/HUM Eurofins SafetyScreen44 (BI); details: Compound concentration 10.0 uM
[36] = biological target: Angiotensin-converting enzyme (Homo sapiens) (UniProt P12821); experiment: ACE(HU_AMTCH400) Eurofins SafetyScreen44 (BI); details: Compound concentration 10.0 uM
[37] = HIV viral replication assay (ELISA); type: cell-based; details: Human immunodeficiency virus 1, C8166
[38] = biological target: 5-hydroxytryptamine receptor 3A (Homo sapiens) (UniProt P46098); experiment: 5HT3/H Eurofins SafetyScreen44 (BI); details: Compound concentration 10.0 uM
[39] = biological target: Endothelin-1 receptor (Homo sapiens) (UniProt P25101); experiment: ETA/H Eurofins SafetyScreen44 (BI); details: Compound concentration 10.0 uM
[40] = biological target: Beta-2 adrenergic receptor (Homo sapiens) (UniProt P07550); experiment: BETA2/HUM Eurofins SafetyScreen44 (BI); details: filed as antagonist, Compound concentration 10.0 uM
[41] = biological target: Neuronal acetylcholine receptor; alpha4/beta2 (Homo sapiens) (UniProt P17787+P43681); experiment: N_NEURO_A4B2 Eurofins SafetyScreen44 (BI); type: protein-complex assay; details: filed as agonist, Compound concentration 10.0 uM
[42] = biological target: 3',5'-cyclic-AMP phosphodiesterase 4D (Homo sapiens) (UniProt Q08499); experiment: PDE4D2 Eurofins SafetyScreen44 (BI); details: Compound concentration 10.0 uM
[43] = biological target: Muscarinic acetylcholine receptor M2 (Homo sapiens) (UniProt P08172); experiment: M2/H Eurofins SafetyScreen44 (BI); details: filed as antagonist, Compound concentration 10.0 uM
[44] = biological target: 5-hydroxytryptamine receptor 2A (Homo sapiens) (UniProt P28223); experiment: 5HT2AH_AGON Eurofins SafetyScreen44 (BI); details: filed as agonist, Compound concentration 10.0 uM

Chain of Alpha-1A adrenergic receptor (Homo sapiens) (P35348 whole entry): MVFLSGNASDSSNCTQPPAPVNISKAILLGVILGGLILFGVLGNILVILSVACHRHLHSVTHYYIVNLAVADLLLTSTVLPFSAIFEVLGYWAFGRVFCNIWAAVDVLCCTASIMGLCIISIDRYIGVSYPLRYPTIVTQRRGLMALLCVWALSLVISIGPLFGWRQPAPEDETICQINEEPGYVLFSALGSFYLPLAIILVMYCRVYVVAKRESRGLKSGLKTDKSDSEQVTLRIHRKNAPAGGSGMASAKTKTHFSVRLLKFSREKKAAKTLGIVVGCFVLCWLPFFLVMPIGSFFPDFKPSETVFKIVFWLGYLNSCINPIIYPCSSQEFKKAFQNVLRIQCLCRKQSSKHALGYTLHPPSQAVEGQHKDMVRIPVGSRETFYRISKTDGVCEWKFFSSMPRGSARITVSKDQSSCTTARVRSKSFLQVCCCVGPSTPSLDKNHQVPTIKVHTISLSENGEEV
Chain of Prostaglandin G/H synthase 1 (Homo sapiens) (P23219 whole entry): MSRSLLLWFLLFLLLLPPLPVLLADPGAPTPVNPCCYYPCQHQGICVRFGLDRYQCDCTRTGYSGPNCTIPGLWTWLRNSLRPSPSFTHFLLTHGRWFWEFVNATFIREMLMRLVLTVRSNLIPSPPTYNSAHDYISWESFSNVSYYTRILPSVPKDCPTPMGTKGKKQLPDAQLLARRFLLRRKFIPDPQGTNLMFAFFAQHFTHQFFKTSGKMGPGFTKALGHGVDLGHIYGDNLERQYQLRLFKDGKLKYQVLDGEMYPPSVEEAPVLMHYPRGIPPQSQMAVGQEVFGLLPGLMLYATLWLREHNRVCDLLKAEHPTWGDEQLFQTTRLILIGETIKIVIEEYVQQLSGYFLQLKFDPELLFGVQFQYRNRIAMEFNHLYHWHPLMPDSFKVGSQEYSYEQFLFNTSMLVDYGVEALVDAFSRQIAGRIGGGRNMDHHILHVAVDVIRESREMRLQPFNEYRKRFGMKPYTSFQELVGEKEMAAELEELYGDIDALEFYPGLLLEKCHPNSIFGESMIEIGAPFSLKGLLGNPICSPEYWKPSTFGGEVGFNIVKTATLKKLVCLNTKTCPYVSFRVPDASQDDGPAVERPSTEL
Chain of Muscarinic acetylcholine receptor M3 (Homo sapiens) (P20309 whole entry, looked up): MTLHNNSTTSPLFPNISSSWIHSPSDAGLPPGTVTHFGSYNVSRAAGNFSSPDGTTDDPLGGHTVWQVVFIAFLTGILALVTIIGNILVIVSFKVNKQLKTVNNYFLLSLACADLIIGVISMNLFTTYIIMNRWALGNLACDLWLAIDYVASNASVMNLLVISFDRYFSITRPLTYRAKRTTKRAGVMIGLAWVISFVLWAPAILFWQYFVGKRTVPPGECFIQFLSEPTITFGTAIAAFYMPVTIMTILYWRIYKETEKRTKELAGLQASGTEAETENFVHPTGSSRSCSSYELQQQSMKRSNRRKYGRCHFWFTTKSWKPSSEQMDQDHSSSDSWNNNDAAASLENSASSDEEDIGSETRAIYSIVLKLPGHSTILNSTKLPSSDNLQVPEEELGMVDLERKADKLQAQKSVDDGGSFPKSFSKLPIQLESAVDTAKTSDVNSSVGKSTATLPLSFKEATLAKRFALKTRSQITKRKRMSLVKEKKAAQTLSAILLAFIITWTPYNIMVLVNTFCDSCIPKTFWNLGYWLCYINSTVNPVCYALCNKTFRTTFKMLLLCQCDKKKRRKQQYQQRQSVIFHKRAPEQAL
Chain of Cholecystokinin receptor type A (Homo sapiens) (P32238 whole entry): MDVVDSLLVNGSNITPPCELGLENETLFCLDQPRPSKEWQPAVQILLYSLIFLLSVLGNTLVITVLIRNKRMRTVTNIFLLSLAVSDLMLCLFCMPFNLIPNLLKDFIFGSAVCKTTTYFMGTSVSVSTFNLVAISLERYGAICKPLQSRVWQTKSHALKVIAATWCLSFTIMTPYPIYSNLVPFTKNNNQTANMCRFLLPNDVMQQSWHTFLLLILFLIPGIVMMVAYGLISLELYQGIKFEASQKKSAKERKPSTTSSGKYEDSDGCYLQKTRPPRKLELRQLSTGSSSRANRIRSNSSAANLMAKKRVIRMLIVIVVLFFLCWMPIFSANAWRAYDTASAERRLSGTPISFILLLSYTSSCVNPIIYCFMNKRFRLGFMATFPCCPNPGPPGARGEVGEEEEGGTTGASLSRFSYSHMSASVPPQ
Chain of hERG (KCNH2) (Q12809 whole entry): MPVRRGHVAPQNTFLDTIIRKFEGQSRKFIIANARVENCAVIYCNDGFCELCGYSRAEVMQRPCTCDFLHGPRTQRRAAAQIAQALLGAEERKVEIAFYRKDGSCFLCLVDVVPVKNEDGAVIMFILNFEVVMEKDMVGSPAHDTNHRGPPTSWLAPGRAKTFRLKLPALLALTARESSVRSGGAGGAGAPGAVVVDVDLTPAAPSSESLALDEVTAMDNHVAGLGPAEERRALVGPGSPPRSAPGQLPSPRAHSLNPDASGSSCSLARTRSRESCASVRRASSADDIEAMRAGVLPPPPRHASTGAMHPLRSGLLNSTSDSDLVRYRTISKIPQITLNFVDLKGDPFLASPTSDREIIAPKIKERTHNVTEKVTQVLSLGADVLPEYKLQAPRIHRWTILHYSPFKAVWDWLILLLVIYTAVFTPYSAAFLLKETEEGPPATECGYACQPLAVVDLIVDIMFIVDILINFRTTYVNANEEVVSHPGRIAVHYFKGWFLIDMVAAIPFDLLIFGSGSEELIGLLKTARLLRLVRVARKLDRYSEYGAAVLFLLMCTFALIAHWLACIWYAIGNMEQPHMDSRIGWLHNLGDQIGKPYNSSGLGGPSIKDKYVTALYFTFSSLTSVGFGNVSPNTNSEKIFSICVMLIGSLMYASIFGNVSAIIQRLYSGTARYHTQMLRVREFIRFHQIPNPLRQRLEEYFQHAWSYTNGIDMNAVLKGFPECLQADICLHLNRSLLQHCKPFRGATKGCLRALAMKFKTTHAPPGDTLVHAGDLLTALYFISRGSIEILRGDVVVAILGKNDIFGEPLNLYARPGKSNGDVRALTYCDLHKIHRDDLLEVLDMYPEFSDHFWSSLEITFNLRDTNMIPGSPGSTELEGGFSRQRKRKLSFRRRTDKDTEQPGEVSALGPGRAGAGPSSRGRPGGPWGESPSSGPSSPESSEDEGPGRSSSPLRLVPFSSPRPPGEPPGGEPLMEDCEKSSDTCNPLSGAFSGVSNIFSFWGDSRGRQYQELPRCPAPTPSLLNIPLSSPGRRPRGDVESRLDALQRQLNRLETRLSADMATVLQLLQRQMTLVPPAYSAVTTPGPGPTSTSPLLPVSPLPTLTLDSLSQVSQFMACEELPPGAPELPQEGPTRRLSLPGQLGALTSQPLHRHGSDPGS
Chain of Gamma-aminobutyric acid receptor subunit alpha-1 (Rattus norvegicus) (P62813 whole entry): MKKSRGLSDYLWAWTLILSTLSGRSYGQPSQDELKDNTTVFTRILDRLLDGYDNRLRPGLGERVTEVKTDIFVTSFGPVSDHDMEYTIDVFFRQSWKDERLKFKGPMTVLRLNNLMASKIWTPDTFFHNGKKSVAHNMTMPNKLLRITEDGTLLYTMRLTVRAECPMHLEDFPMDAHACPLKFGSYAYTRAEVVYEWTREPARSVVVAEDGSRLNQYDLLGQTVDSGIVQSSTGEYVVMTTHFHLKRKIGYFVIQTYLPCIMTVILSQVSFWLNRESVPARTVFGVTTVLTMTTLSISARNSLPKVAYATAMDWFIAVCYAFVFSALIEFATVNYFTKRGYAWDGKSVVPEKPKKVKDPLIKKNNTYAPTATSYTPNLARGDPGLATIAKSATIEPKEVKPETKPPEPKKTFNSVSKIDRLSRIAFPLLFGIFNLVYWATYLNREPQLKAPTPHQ
Chain of Vasopressin V1a receptor (Homo sapiens) (P37288 whole entry, looked up): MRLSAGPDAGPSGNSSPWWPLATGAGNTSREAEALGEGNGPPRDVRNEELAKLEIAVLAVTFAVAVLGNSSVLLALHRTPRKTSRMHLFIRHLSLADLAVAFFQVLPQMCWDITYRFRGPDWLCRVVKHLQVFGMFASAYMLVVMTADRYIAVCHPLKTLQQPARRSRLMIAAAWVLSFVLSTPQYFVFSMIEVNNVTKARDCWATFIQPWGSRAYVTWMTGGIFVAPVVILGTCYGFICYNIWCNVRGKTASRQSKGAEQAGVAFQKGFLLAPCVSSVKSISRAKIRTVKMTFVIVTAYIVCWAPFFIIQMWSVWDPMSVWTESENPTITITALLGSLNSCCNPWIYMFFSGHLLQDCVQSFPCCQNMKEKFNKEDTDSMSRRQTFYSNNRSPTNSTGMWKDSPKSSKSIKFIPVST
Chain of Androgen receptor (Homo sapiens) (P10275 whole entry): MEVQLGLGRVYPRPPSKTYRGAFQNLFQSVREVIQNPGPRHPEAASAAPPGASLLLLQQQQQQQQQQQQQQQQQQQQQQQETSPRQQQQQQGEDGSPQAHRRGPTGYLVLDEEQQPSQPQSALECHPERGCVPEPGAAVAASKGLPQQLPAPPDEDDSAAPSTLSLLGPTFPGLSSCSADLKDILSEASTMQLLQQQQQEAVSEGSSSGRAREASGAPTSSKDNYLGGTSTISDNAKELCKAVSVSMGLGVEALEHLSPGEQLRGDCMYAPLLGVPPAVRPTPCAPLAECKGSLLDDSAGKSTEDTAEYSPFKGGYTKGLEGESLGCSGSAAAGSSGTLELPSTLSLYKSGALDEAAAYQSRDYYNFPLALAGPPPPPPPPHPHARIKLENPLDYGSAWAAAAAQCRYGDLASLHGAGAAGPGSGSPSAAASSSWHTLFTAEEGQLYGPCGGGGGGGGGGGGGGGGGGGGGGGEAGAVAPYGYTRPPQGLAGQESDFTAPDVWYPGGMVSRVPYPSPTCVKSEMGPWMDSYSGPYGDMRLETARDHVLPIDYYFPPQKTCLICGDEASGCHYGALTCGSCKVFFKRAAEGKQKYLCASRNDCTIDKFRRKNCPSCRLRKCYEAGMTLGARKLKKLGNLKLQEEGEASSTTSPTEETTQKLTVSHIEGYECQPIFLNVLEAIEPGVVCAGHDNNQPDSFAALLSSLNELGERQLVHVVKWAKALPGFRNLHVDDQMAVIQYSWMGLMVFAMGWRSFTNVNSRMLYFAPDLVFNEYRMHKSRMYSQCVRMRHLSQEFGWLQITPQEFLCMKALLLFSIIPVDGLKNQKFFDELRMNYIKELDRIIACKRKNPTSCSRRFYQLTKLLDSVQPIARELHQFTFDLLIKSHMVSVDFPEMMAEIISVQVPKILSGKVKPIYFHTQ

CC(C)(C#Cc1ccc(NC(=O)COc2ccccc2C(=O)c2ccccc2)c(Cl)c1)C(=O)O [BI 2439]
IC50 [1]: 5050 nM (not active)

Cc1c(NC(=O)COc2ccc(Cl)cc2C(=O)c2cc(F)cc(C(F)(F)F)c2)ccc(C(=O)O)c1F [BI 2540]
residual activity [2]: 99%
residual activity [3]: 82%
residual activity [4]: 108%
IC50 [1]: 12 nM (active)
activity at 10 µM (MAO-A): 104% (not active)
residual activity [5]: 110%
residual activity [6]: 111%
residual activity [7]: 100%
activity at 10 µM [8]: 96% (not active)
residual activity [9]: 125%
residual activity [10]: 78%
residual activity [11]: 103%
residual activity [12]: 88%
residual activity [13]: 110%
residual activity [14]: 98%
residual activity [15]: 127%
residual activity [16]: 94%
residual activity [17]: 103%
residual activity [18]: 103%
residual activity [19]: 97%
residual activity [20]: 96%
activity at 10 µM (hERG (KCNH2)): 94% (not active)
residual activity [21]: 101%
residual activity [22]: 103%
residual activity [23]: 79%
residual activity [24]: 107%
residual activity [25]: 105%
IC50 [26]: 2.6 nM (active)
residual activity [27]: 84%
residual activity [28]: 90%
residual activity [29]: 96%
residual activity [30]: 87%
residual activity [31]: 101%
residual activity [32]: 100%
residual activity [33]: 113%
residual activity [34]: 103%
residual activity [35]: 92%
residual activity [36]: 110%
IC50 [37]: 0.76 nM (active)
residual activity [38]: 100%
residual activity [39]: 113%
residual activity [40]: 96%
residual activity [41]: 102%
residual activity [42]: 93%
residual activity [43]: 111%
residual activity [44]: 110%
